Measured values as given in patent US8722582B2, “Thermodynamically stable crystal modification of 2-({2-chloro-4-(methylsulfonyl)-3-[(2,2,2-trifluoroethoxy)methyl]phenyl} carbonyl)cyclohexane-1,3-dione” (Bayer Cropscience AG, priority 2007, dated 2014).

How the values were obtained:
[1] = Stability test: storage of an oil dispersion; format: physicochemical; details: oil dispersion of tembotrione; after several weeks of storage; compared to oil dispersion of crystal modification II, III or a mixture thereof
[2] = Tests in practice of suspension formulations; format: physicochemical; details: tembotrione finely ground in solid form, spontaneously or over a relatively long period of time
Description: Tembotrione, which is known, for example, from WO 00/21924 (example No. 3 in table 1), has herbicidal properties and is suitable for preparing crop protection compositions used for weed control. […] User-friendly presentation forms are, for example, suspension formulations in which tembotrione is present finely ground in solid form. […] The crystal growth may occur spontaneously or over a relatively long period of time and is unpredictable.

Compound	signs of agglomeration and precipitation on storage [1]	crystal growth, agglomeration and precipitation in suspension formulation [2]
CS(=O)(=O)c1ccc(C(=O)C2C(=O)CCCC2=O)c(Cl)c1COCC(F)(F)F [crystal modification I, 2-({2-chloro-4-(methylsulfonyl)-3-[(2,2,2-trifluoroethoxy)methyl]phenyl}carbonyl)cyclohexan-1,3-dione]	no signs of agglomeration and precipitation	
CS(=O)(=O)c1ccc(C(=O)C2C(=O)CCCC2=O)c(Cl)c1COCC(F)(F)F [tembotrione, 2-({2-chloro-4-(methylsulfonyl)-3-[(2,2,2-trifluoroethoxy)methyl]phenyl}carbonyl)cyclohexan-1,3-dione]		leads to crystal growth and, as a consequence thereof, to agglomeration and precipitation
